{"source": "patent US4465676A", "about": "“16α Halogen substituted 3,17β-dihydroxy steroidal estrogens” (priority 1980, dated 1984)", "test_system": "rat uterine cytosol (8S and 4S forms)", "assay": "Glycerol gradient sedimentation of labelled rat uterine cytosol", "format": "binding", "conditions": "glycerol gradients, with and without 0.4M KCl; DES 7×10^-7 M", "procedure": "The analysis was performed with glycerol rather than the usual sucrose because a more pronounced 8S peak was obtained in the glycerol gradients with both ^3 H- and ^125 I-labeled estradiol. Rat uterine cytosol was prepared as described in Example 4. […] Separate tubes also contained 0.4M KCl. At the end of the incubation, free steroid was removed by adding the incubation mixture to a tube containing a 5-mg pellet of dextran-coated charcoal. After shaking for 5 to 10 minutes at 0° C., the charcoal was removed by centrifugation. […] Fractions of four drops were collected from the bottom of the tube. Control tubes containing cytosol mixed with ^14 C-labeled bovine serum albumin (BSA) as a marker were also analyzed. The sedimintation pattern is illustrated in FIG. 2. The low-salt 8S form (FIG. 2, Curve A) is totally transformed into the 4S form by 0.4M KCl (FIG. 2, Curve B)."}
{"smiles": "C[C@]12CC[C@@H]3c4ccc(O)cc4CC[C@H]3[C@@H]1C[C@@H]([125I])[C@@H]2O", "note": "[^125 I-E2, 16α-[^125 I]iodoestra-1,3,5(10)-triene-3,17β-diol]", "values": [{"measurement": "displacement by DES of radioactivity bound to the 8S and 4S forms", "value": "almost completely displaced by DES"}]}
